In the supplement of paper PMC8149375:

Assays:
Details in all cases: treatment: drug + dasatinib (fixed dose, not stated); 5 days
TK-10 [1] = assay: minimum viability across doses, drug + dasatinib, relative to DMSO (fraction); higher = less growth inhibition
Description: (§1)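 Primary HTS combination arm: 8 RCC cell lines treated with 8 doses (up to 10 uM) of each library drug plus a fixed dose of dasatinib (dose not stated) for 5 days; viability read by CellTiter-Glo and normalised to DMSO. GI50 was fitted with XLfit, AUC is the area under the dose-response curve, and minimum viability is the lowest fraction of DMSO viability across doses.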

CAKI-1 [2] = assay: as above
Description: as §1

786-O [3] = assay: as above
Description: as §1

ACHN [4] = assay: as above
Description: as §1

769-P [5] = assay: as above
Description: as §1

SN12C [6] = assay: as above
Description: as §1

UO-31 [7] = assay: as above
Description: as §1

A498 [8] = assay: as above
Description: as §1

TK-10 [9] = assay: GI50 of drug in presence of dasatinib; higher = less potent
Description: as §1

CAKI-1 [10] = assay: as above
Description: as §1

786-O [11] = assay: as above
Description: as §1

ACHN [12] = assay: as above
Description: as §1

769-P [13] = assay: as above
Description: as §1

SN12C [14] = assay: as above
Description: as §1

UO-31 [15] = assay: as above
Description: as §1

A498 [16] = assay: as above
Description: as §1

TK-10 [17] = assay: AUC of dose-response viability curve, drug + dasatinib, normalised to DMSO (arbitrary (AUC of normalised viability)); higher = less growth inhibition
Description: as §1

CAKI-1 [18] = assay: as above
Description: as §1

786-O [19] = assay: as above
Description: as §1

ACHN [20] = assay: as above
Description: as §1

769-P [21] = assay: as above
Description: as §1

SN12C [22] = assay: as above
Description: as §1

UO-31 [23] = assay: as above
Description: as §1

A498 [24] = assay: as above
Description: as §1

## Cc1ccc(NC(=O)c2cccc(C(C)(C)C#N)c2)cc1Nc1ccc2ncn(C)c(=O)c2c1 [AZ628] + Cc1nc(Nc2ncc(C(=O)Nc3c(C)cccc3Cl)s2)cc(N2CCN(CCO)CC2)n1 [dasatinib]
TK-10 [1]
  minimum viability across doses: 0.311
CAKI-1 [2]
  minimum viability across doses: 0.0806
786-O [3]
  minimum viability across doses: 0.593
ACHN [4]
  minimum viability across doses: 0.174
769-P [5]
  minimum viability across doses: 0.214
SN12C [6]
  minimum viability across doses: 0.348
UO-31 [7]
  minimum viability across doses: 0.0219
A498 [8]
  minimum viability across doses: 0.409
TK-10 [9]
  GI50 of drug: 1600 nM
CAKI-1 [10]
  GI50 of drug: 1120 nM
786-O [11]
  GI50 of drug: > 10000 nM
ACHN [12]
  GI50 of drug: 146 nM
769-P [13]
  GI50 of drug: 2470 nM
SN12C [14]
  GI50 of drug: > 10000 nM
UO-31 [15]
  GI50 of drug: 1580 nM
A498 [16]
  GI50 of drug: 6100 nM
TK-10 [17]
  AUC of dose-response viability curve: 2.25
CAKI-1 [18]
  AUC of dose-response viability curve: 2.08
786-O [19]
  AUC of dose-response viability curve: 2.36
ACHN [20]
  AUC of dose-response viability curve: 1.59
769-P [21]
  AUC of dose-response viability curve: 2.33
SN12C [22]
  AUC of dose-response viability curve: 2.33
UO-31 [23]
  AUC of dose-response viability curve: 2.95
A498 [24]
  AUC of dose-response viability curve: 3.02

## Cc1cc(Nc2nc(N[C@@H](C)c3ccc(F)cc3)c(C#N)cc2F)n[nH]1 [AZ 960] + Cc1nc(Nc2ncc(C(=O)Nc3c(C)cccc3Cl)s2)cc(N2CCN(CCO)CC2)n1 [dasatinib]
TK-10 [1]
  minimum viability across doses: 0.091
CAKI-1 [2]
  minimum viability across doses: 0.00482
786-O [3]
  minimum viability across doses: 0.00499
ACHN [4]
  minimum viability across doses: 0.0473
769-P [5]
  minimum viability across doses: 0.0281
SN12C [6]
  minimum viability across doses: 0.127
UO-31 [7]
  minimum viability across doses: 0.0082
A498 [8]
  minimum viability across doses: 0.246
TK-10 [9]
  GI50 of drug: 882 nM
CAKI-1 [10]
  GI50 of drug: 146 nM
786-O [11]
  GI50 of drug: 197 nM
ACHN [12]
  GI50 of drug: 123 nM
769-P [13]
  GI50 of drug: 442 nM
SN12C [14]
  GI50 of drug: 651 nM
UO-31 [15]
  GI50 of drug: 496 nM
A498 [16]
  GI50 of drug: 987 nM
TK-10 [17]
  AUC of dose-response viability curve: 2.17
CAKI-1 [18]
  AUC of dose-response viability curve: 1.43
786-O [19]
  AUC of dose-response viability curve: 1.41
ACHN [20]
  AUC of dose-response viability curve: 1.48
769-P [21]
  AUC of dose-response viability curve: 1.77
SN12C [22]
  AUC of dose-response viability curve: 1.91
UO-31 [23]
  AUC of dose-response viability curve: 2.11
A498 [24]
  AUC of dose-response viability curve: 2.64

## CNC(=O)c1cccc(-c2ccc3c(N4CCOC[C@@H]4C)nc(N4CCOC[C@@H]4C)nc3n2)c1 [AZD2014] + Cc1nc(Nc2ncc(C(=O)Nc3c(C)cccc3Cl)s2)cc(N2CCN(CCO)CC2)n1 [dasatinib]
TK-10 [1]
  minimum viability across doses: 0.0635
CAKI-1 [2]
  minimum viability across doses: 0.0331
786-O [3]
  minimum viability across doses: 0.0164
ACHN [4]
  minimum viability across doses: 0.0544
769-P [5]
  minimum viability across doses: 0.0727
SN12C [6]
  minimum viability across doses: 0.119
UO-31 [7]
  minimum viability across doses: 0.00563
A498 [8]
  minimum viability across doses: 0.147
TK-10 [9]
  GI50 of drug: 64 nM
CAKI-1 [10]
  GI50 of drug: 62.1 nM
786-O [11]
  GI50 of drug: 44 nM
ACHN [12]
  GI50 of drug: 8.2 nM
769-P [13]
  GI50 of drug: 131 nM
SN12C [14]
  GI50 of drug: 88.5 nM
UO-31 [15]
  GI50 of drug: 268 nM
A498 [16]
  GI50 of drug: 430 nM
TK-10 [17]
  AUC of dose-response viability curve: 1.28
CAKI-1 [18]
  AUC of dose-response viability curve: 1.28
786-O [19]
  AUC of dose-response viability curve: 1.33
ACHN [20]
  AUC of dose-response viability curve: 0.938
769-P [21]
  AUC of dose-response viability curve: 1.63
SN12C [22]
  AUC of dose-response viability curve: 1.48
UO-31 [23]
  AUC of dose-response viability curve: 2.06
A498 [24]
  AUC of dose-response viability curve: 2.2

## COc1cc(CCc2cc(NC(=O)c3ccc(N4C[C@@H](C)N[C@@H](C)C4)cc3)n[nH]2)cc(OC)c1 [AZD4547] + Cc1nc(Nc2ncc(C(=O)Nc3c(C)cccc3Cl)s2)cc(N2CCN(CCO)CC2)n1 [dasatinib]
TK-10 [1]
  minimum viability across doses: 0.314
CAKI-1 [2]
  minimum viability across doses: 0.0512
786-O [3]
  minimum viability across doses: 0.106
ACHN [4]
  minimum viability across doses: 0.14
769-P [5]
  minimum viability across doses: 0.581
SN12C [6]
  minimum viability across doses: 0.061
UO-31 [7]
  minimum viability across doses: 0.016
A498 [8]
  minimum viability across doses: 0.542
TK-10 [9]
  GI50 of drug: 3000 nM
CAKI-1 [10]
  GI50 of drug: 34 nM
786-O [11]
  GI50 of drug: 3540 nM
ACHN [12]
  GI50 of drug: 314 nM
769-P [13]
  GI50 of drug: > 10000 nM
SN12C [14]
  GI50 of drug: 201 nM
UO-31 [15]
  GI50 of drug: 4240 nM
A498 [16]
  GI50 of drug: > 10000 nM
TK-10 [17]
  AUC of dose-response viability curve: 2.37
CAKI-1 [18]
  AUC of dose-response viability curve: 1.25
786-O [19]
  AUC of dose-response viability curve: 2.33
ACHN [20]
  AUC of dose-response viability curve: 1.72
769-P [21]
  AUC of dose-response viability curve: 2.51
SN12C [22]
  AUC of dose-response viability curve: 1.78
UO-31 [23]
  AUC of dose-response viability curve: 4.54
A498 [24]
  AUC of dose-response viability curve: 3.4

## Cc1ncc(-c2ccnc(Nc3ccc(S(C)(=O)=O)cc3)n2)n1C(C)C [AZD5438] + Cc1nc(Nc2ncc(C(=O)Nc3c(C)cccc3Cl)s2)cc(N2CCN(CCO)CC2)n1 [dasatinib]
TK-10 [1]
  minimum viability across doses: 0.127
CAKI-1 [2]
  minimum viability across doses: 0.0627
786-O [3]
  minimum viability across doses: 0.00349
ACHN [4]
  minimum viability across doses: 0.0173
769-P [5]
  minimum viability across doses: 0.0188
SN12C [6]
  minimum viability across doses: 0.0122
UO-31 [7]
  minimum viability across doses: 0.00804
A498 [8]
  minimum viability across doses: 0.0116
TK-10 [9]
  GI50 of drug: 529 nM
CAKI-1 [10]
  GI50 of drug: 238 nM
786-O [11]
  GI50 of drug: 128 nM
ACHN [12]
  GI50 of drug: 246 nM
769-P [13]
  GI50 of drug: 474 nM
SN12C [14]
  GI50 of drug: 1760 nM
UO-31 [15]
  GI50 of drug: 367 nM
A498 [16]
  GI50 of drug: 1550 nM
TK-10 [17]
  AUC of dose-response viability curve: 2.02
CAKI-1 [18]
  AUC of dose-response viability curve: 1.65
786-O [19]
  AUC of dose-response viability curve: 1.3
ACHN [20]
  AUC of dose-response viability curve: 1.46
769-P [21]
  AUC of dose-response viability curve: 1.82
SN12C [22]
  AUC of dose-response viability curve: 2.05
UO-31 [23]
  AUC of dose-response viability curve: 2.05
A498 [24]
  AUC of dose-response viability curve: 2.78

## NC(=O)Nc1cc(-c2cccc(F)c2)sc1C(=O)N[C@H]1CCCNC1 [AZD7762] + Cc1nc(Nc2ncc(C(=O)Nc3c(C)cccc3Cl)s2)cc(N2CCN(CCO)CC2)n1 [dasatinib]
TK-10 [1]
  minimum viability across doses: 0.0198
CAKI-1 [2]
  minimum viability across doses: 0.00368
786-O [3]
  minimum viability across doses: 0.00579
ACHN [4]
  minimum viability across doses: 0.0359
769-P [5]
  minimum viability across doses: 0.0473
SN12C [6]
  minimum viability across doses: 0.00591
UO-31 [7]
  minimum viability across doses: 0.0113
A498 [8]
  minimum viability across doses: 0.0562
TK-10 [9]
  GI50 of drug: 59.6 nM
CAKI-1 [10]
  GI50 of drug: 59.1 nM
786-O [11]
  GI50 of drug: 25 nM
ACHN [12]
  GI50 of drug: 5.85 nM
769-P [13]
  GI50 of drug: 52.4 nM
SN12C [14]
  GI50 of drug: 315 nM
UO-31 [15]
  GI50 of drug: 99.7 nM
A498 [16]
  GI50 of drug: 261 nM
TK-10 [17]
  AUC of dose-response viability curve: 1.26
CAKI-1 [18]
  AUC of dose-response viability curve: 1.19
786-O [19]
  AUC of dose-response viability curve: 0.834
ACHN [20]
  AUC of dose-response viability curve: 0.645
769-P [21]
  AUC of dose-response viability curve: 1.32
SN12C [22]
  AUC of dose-response viability curve: 1.56
UO-31 [23]
  AUC of dose-response viability curve: 2.04
A498 [24]
  AUC of dose-response viability curve: 2.29

## COc1ccc(-c2ccc3c(N4CCOC[C@@H]4C)nc(N4CCOC[C@@H]4C)nc3n2)cc1CO [AZD8055] + Cc1nc(Nc2ncc(C(=O)Nc3c(C)cccc3Cl)s2)cc(N2CCN(CCO)CC2)n1 [dasatinib]
TK-10 [1]
  minimum viability across doses: 0.053
CAKI-1 [2]
  minimum viability across doses: 0.0255
786-O [3]
  minimum viability across doses: 0.018
ACHN [4]
  minimum viability across doses: 0.044
769-P [5]
  minimum viability across doses: 0.0691
SN12C [6]
  minimum viability across doses: 0.135
UO-31 [7]
  minimum viability across doses: 0.00778
A498 [8]
  minimum viability across doses: 0.182
TK-10 [9]
  GI50 of drug: 36.9 nM
CAKI-1 [10]
  GI50 of drug: 24 nM
786-O [11]
  GI50 of drug: 7.26 nM
ACHN [12]
  GI50 of drug: < 3 nM
769-P [13]
  GI50 of drug: 59.9 nM
SN12C [14]
  GI50 of drug: 39.8 nM
UO-31 [15]
  GI50 of drug: 65.2 nM
A498 [16]
  GI50 of drug: 100 nM
TK-10 [17]
  AUC of dose-response viability curve: 1.21
CAKI-1 [18]
  AUC of dose-response viability curve: 0.988
786-O [19]
  AUC of dose-response viability curve: 0.846
ACHN [20]
  AUC of dose-response viability curve: 0.585
769-P [21]
  AUC of dose-response viability curve: 1.22
SN12C [22]
  AUC of dose-response viability curve: 1.3
UO-31 [23]
  AUC of dose-response viability curve: 1.29
A498 [24]
  AUC of dose-response viability curve: 1.68
